# Measurements taken from patent publication US8642548B2 (Mannkind Corporation, priority 2009, dated 2014).
# Experiment: Phase 1a trial of GLP-1/FDKP inhalation powder: insulin, glucose, gastric emptying
# Type: in vivo, human
compound,measurement,setting,value
"CC[C@H](C)[C@H](NC(=O)[C@H](Cc1ccccc1)NC(=O)[C@H](CCC(=O)O)NC(=O)[C@H](CCCCN)NC(=O)[C@H](C)NC(=O)[C@H](C)NC(=O)[C@H](CCC(N)=O)NC(=O)CNC(=O)[C@H](CCC(=O)O)NC(=O)[C@H](CC(C)C)NC(=O)[C@H](Cc1ccc(O)cc1)NC(=O)[C@H](CO)NC(=O)[C@H](CO)NC(=O)[C@@H](NC(=O)[C@H](CC(=O)O)NC(=O)[C@H](CO)NC(=O)[C@@H](NC(=O)[C@H](Cc1ccccc1)NC(=O)[C@@H](NC(=O)CNC(=O)[C@H](CCC(=O)O)NC(=O)[C@H](C)NC(=O)[C@@H](N)Cc1c[nH]cn1)[C@@H](C)O)[C@@H](C)O)C(C)C)C(=O)N[C@@H](C)C(=O)N[C@@H](Cc1c[nH]c2ccccc12)C(=O)N[C@@H](CC(C)C)C(=O)N[C@H](C(=O)N[C@@H](CCCCN)C(=O)NCC(=O)N[C@@H](CCCNC(=N)N)C(N)=O)C(C)C [GLP-1, glucagon-like peptide 1]",mean fasting plasma glucose,"1.5 mg GLP-1 inhaled, 20 min after dosing, from 85 mg/dL",70 mg/dL
same,inhibition of gastric emptying,"pulmonary administration, dry powder, data not shown",lack inhibition of gastric emptying
